68 sequences from the supplement of paper PMC11208160 can be followed below.

The data set in a line: recombinant UMI read abundance after kanamycin selection (control-corrected) (log10(CPM+1)); higher = more efficient recombination; extreme values may be limits of the assay; sequences stand for … in AGTGCAGAGAAAATCGGCCAGTTTTCTCTGCCTGCAGTCCGCATGCCGTGGGACCCCTTGGGTTCTAACCTGTTGCCTAGATTTATGCAGCGGACTGCCTTTCTCCCAAAGTGATAAACCGG…AGGTTGGTTTCACT; site = the 11-nt donor. Summed up: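 For the IS621 bridge recombinase, a pooled Escherichia coli screen tested donor and donor-binding-loop pairs. Cells received the pair library together with a target plasmid encoding a fixed target and T7-inducible recombinase, then went onto IPTG (0.07 mM) plus kanamycin or unselected plates in duplicate. After PCR across the donor–target junction and sequencing, recombinant UMI counts were normalized to CPM, averaged, and scaled by control-derived factors. Each value is given as log10(CPM+1).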
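Further: IS621 bridge recombinase in Escherichia coli cells against a fixed T5 target plasmid.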

For “GCCAAGCCATGGACCGGTTTTCCCGGTAATCCGTATTTGGG (site GCTAAGCCTCC)”, the “recombinant UMI read abundance (log10)” value is 0.
Regarding “GCCAATCCATGGACCGGTTTTCCCGGTAATCCGTATTTGAA (site GACAATCCTTT)”, the “recombinant UMI read abundance (log10)” value came out at 0.01.
For “GCCAATCCATGGACCGGTTTTCCCGGTAATCCGTATTTGAA (site GCCAATCCTTT)” the value was 0.53; for “GCCAATCCATGGACCGGTTTTCCCGGTAATCCGTATTTGAA (site GGCAATCCTTT)”, 0.
In the case of “GCCAATCCATGGACCGGTTTTCCCGGTAATCCGTATTTGAA (site GTCAATCCTTT)”, the “recombinant UMI read abundance (log10)” value stood at 0.00267.
For “GCCACAGCATGGACCGGTTTTCCCGGTAATCCGTATTTGTT (site GCCACAGCTAA)” the value was 1.48; for “GCCACCCCATGGACCGGTTTTCCCGGTAATCCGTATTTGTA (site GCCACACCTTA)”, 0.0331.
For “GCCACCCCATGGACCGGTTTTCCCGGTAATCCGTATTTGTA (site GCCACCCCTTA)” the value was 0; for “GCCACCCCATGGACCGGTTTTCCCGGTAATCCGTATTTGTA (site GCCACGCCTTA)”, 0; for “GCCACCCCATGGACCGGTTTTCCCGGTAATCCGTATTTGTA (site GCCACTCCTTA)”, 0.0101.
For the sequence “GCCACCGCATGGACCGGTTTTCCCGGTAATCCGTATTTGCG (site ACCACCGCTCG)”, the “recombinant UMI read abundance (log10)” value was determined as 0.439.
With “GCCACCGCATGGACCGGTTTTCCCGGTAATCCGTATTTGCG (site CCCACCGCTCG)”, the “recombinant UMI read abundance (log10)” value was 0.0179.
For “GCCACCGCATGGACCGGTTTTCCCGGTAATCCGTATTTGCG (site GCCACCGCTCG)” the value was 0.939; for “GCCACCGCATGGACCGGTTTTCCCGGTAATCCGTATTTGCG (site TCCACCGCTCG)”, 0.00586.
Take “GCCACGCCATGGACCGGTTTTCCCGGTAATCCGTATTTGTT (site GCCACGCCTAA)”: the “recombinant UMI read abundance (log10)” value is 0.0554.
As for “GCCACGCCATGGACCGGTTTTCCCGGTAATCCGTATTTGTT (site GCCACGCCTCA)”, the “recombinant UMI read abundance (log10)” value came out at 0.0173.
In the case of “GCCACGCCATGGACCGGTTTTCCCGGTAATCCGTATTTGTT (site GCCACGCCTGA)”, the “recombinant UMI read abundance (log10)” value came to 0.
Consider “GCCACGCCATGGACCGGTTTTCCCGGTAATCCGTATTTGTT (site GCCACGCCTTA)”, for which the “recombinant UMI read abundance (log10)” value was determined as 0.00385.
“GCCACGTCATGGACCGGTTTTCCCGGTAATCCGTATTTGTA (site GCCACGACTTA)”: the “recombinant UMI read abundance (log10)” value came to 0.0796.
“GCCACGTCATGGACCGGTTTTCCCGGTAATCCGTATTTGTA (site GCCACGCCTTA)”: the “recombinant UMI read abundance (log10)” value came out at 0.0201.
Consider “GCCACGTCATGGACCGGTTTTCCCGGTAATCCGTATTTGTA (site GCCACGGCTTA)”, for which the “recombinant UMI read abundance (log10)” value was determined as 0.
On to “GCCACGTCATGGACCGGTTTTCCCGGTAATCCGTATTTGTA (site GCCACGTCTTA)”, for which the “recombinant UMI read abundance (log10)” value came out at 2.47.
“GCCACTGCATGGACCGGTTTTCCCGGTAATCCGTATTTGCC (site GCAACTGCTGG)”: the “recombinant UMI read abundance (log10)” value came out at 1.19.
Regarding “GCCACTGCATGGACCGGTTTTCCCGGTAATCCGTATTTGCC (site GCCACTGCTGG)”, the “recombinant UMI read abundance (log10)” value worked out at 1.63.
For “GCCACTGCATGGACCGGTTTTCCCGGTAATCCGTATTTGCC (site GCGACTGCTGG)”, the “recombinant UMI read abundance (log10)” value amounted to 0.
For the sequence “GCCACTGCATGGACCGGTTTTCCCGGTAATCCGTATTTGCC (site GCTACTGCTGG)”, the “recombinant UMI read abundance (log10)” value turned out to be 0.
For “GCCACTTCATGGACCGGTTTTCCCGGTAATCCGTATTTGTT (site GCCACTTCTAA)” the value was 0.855.
“GCCAGACCATGGACCGGTTTTCCCGGTAATCCGTATTTGGA (site GCCAGACCTTC)”: the “recombinant UMI read abundance (log10)” value came out at 0.0205.
Take “GCCAGTCCATGGACCGGTTTTCCCGGTAATCCGTATTTGAT (site GCCAGTCCTAT)”: the “recombinant UMI read abundance (log10)” value was determined as 0.00932.
With “GCCATACCATGGACCGGTTTTCCCGGTAATCCGTATTTGTG (site GCCATACCTCA)”, the “recombinant UMI read abundance (log10)” value amounted to 0.00697.
As for “GCCATGCCATGGACCGGTTTTCCCGGTAATCCGTATTTGTA (site GCCAAGCCTTA)”, the “recombinant UMI read abundance (log10)” value was 0.00915.
For “GCCATGCCATGGACCGGTTTTCCCGGTAATCCGTATTTGTA (site GCCACGCCTTA)”, the “recombinant UMI read abundance (log10)” value worked out at 0.0146.
For “GCCATGCCATGGACCGGTTTTCCCGGTAATCCGTATTTGTA (site GCCAGGCCTTA)” the value was 0.00785.
For “GCCATGCCATGGACCGGTTTTCCCGGTAATCCGTATTTGTA (site GCCATGCCTTA)” the value was 1.26; for “GCCCCGCCATGGACCGGTTTTCCCGGTAATCCGTATTTGTA (site GCCACGCCTTA)”, 0.324; for “GCCCCGCCATGGACCGGTTTTCCCGGTAATCCGTATTTGTA (site GCCCCGCCTTA)”, 0.478.
Regarding “GCCCCGCCATGGACCGGTTTTCCCGGTAATCCGTATTTGTA (site GCCGCGCCTTA)”, the “recombinant UMI read abundance (log10)” value turned out to be 0.0226.
Turning to “GCCCCGCCATGGACCGGTTTTCCCGGTAATCCGTATTTGTA (site GCCTCGCCTTA)”, the “recombinant UMI read abundance (log10)” value turned out to be 0.00782.
Turning to “GCCCGAGCATGGACCGGTTTTCCCGGTAATCCGTATTTGAA (site GCCCGAGCTTT)”, the “recombinant UMI read abundance (log10)” value was 1.82.
With “GCCCTCGCATGGACCGGTTTTCCCGGTAATCCGTATTTGAC (site GCCCTCGCTGT)”, the “recombinant UMI read abundance (log10)” value turned out to be 2.61.
As for “GCCGATACATGGACCGGTTTTCCCGGTAATCCGTATTTGTA (site GCCGATACTTA)”, the “recombinant UMI read abundance (log10)” value amounted to 1.91.
Regarding “GCCGGCTCATGGACCGGTTTTCCCGGTAATCCGTATTTGGA (site GCCGGCTCTTC)”, the “recombinant UMI read abundance (log10)” value was 0.632.
For “GCCGTATCATGGACCGGTTTTCCCGGTAATCCGTATTTGAA (site GCCGTATCTTT)” the value was 2.31.
Take “GCCTACTCATGGACCGGTTTTCCCGGTAATCCGTATTTGGA (site GCCTACTCTTC)”: the “recombinant UMI read abundance (log10)” value is 1.91.
As to “GCCTCCGCATGGACCGGTTTTCCCGGTAATCCGTATTTGAG (site GCCTCCGCTCT)”, the “recombinant UMI read abundance (log10)” value came out at 0.364.
As to “GCCTCCTCATGGACCGGTTTTCCCGGTAATCCGTATTTGCT (site GCCTCCTCTAG)”, the “recombinant UMI read abundance (log10)” value was 2.9.
For “GCCTTAGCATGGACCGGTTTTCCCGGTAATCCGTATTTGCC (site GCCTTAGCTGG)” the value was 0; for “GCGAAAACATGGACCGGTTTTCCCGGTAATCCGTATTTGCC (site GCGAAAACTAG)”, 0; for “GCGAAAACATGGACCGGTTTTCCCGGTAATCCGTATTTGCC (site GCGAAAACTCG)”, 0.
In the case of “GCGAAAACATGGACCGGTTTTCCCGGTAATCCGTATTTGCC (site GCGAAAACTGG)”, the “recombinant UMI read abundance (log10)” value amounted to 0.
Turning to “GCGAAAACATGGACCGGTTTTCCCGGTAATCCGTATTTGCC (site GCGAAAACTTG)”, the “recombinant UMI read abundance (log10)” value came out at 0.
For “GCGAAAACATGGACCGGTTTTCCCGGTAATCCGTATTTGCT (site ACGAAAACTAG)” the value was 2.25; for “GCGAAAACATGGACCGGTTTTCCCGGTAATCCGTATTTGCT (site CCGAAAACTAG)”, 0; for “GCGAAAACATGGACCGGTTTTCCCGGTAATCCGTATTTGCT (site GAGAAAACTAG)”, 0.
Regarding “GCGAAAACATGGACCGGTTTTCCCGGTAATCCGTATTTGCT (site GCAAAAACTAG)”, the “recombinant UMI read abundance (log10)” value is 0.
As to “GCGAAAACATGGACCGGTTTTCCCGGTAATCCGTATTTGCT (site GCCAAAACTAG)”, the “recombinant UMI read abundance (log10)” value turned out to be 0.
As for “GCGAAAACATGGACCGGTTTTCCCGGTAATCCGTATTTGCT (site GCGAAAACTAA)”, the “recombinant UMI read abundance (log10)” value amounted to 0.207.
Regarding “GCGAAAACATGGACCGGTTTTCCCGGTAATCCGTATTTGCT (site GCGAAAACTAC)”, the “recombinant UMI read abundance (log10)” value worked out at 0.
For “GCGAAAACATGGACCGGTTTTCCCGGTAATCCGTATTTGCT (site GCGAAAACTAG)”, the “recombinant UMI read abundance (log10)” value came to 0.854.
In the case of “GCGAAAACATGGACCGGTTTTCCCGGTAATCCGTATTTGCT (site GCGAAAACTAT)”, the “recombinant UMI read abundance (log10)” value was 0.00596.
As to “GCGAAAACATGGACCGGTTTTCCCGGTAATCCGTATTTGCT (site GCGAAAACTCG)”, the “recombinant UMI read abundance (log10)” value is 0.
For “GCGAAAACATGGACCGGTTTTCCCGGTAATCCGTATTTGCT (site GCGAAAACTGG)” the value was 0; for “GCGAAAACATGGACCGGTTTTCCCGGTAATCCGTATTTGCT (site GCGAAAACTTG)”, 0.
As for “GCGAAAACATGGACCGGTTTTCCCGGTAATCCGTATTTGCT (site GCGAAACCTAG)”, the “recombinant UMI read abundance (log10)” value turned out to be 0.
Regarding “GCGAAAACATGGACCGGTTTTCCCGGTAATCCGTATTTGCT (site GCGAAAGCTAG)”, the “recombinant UMI read abundance (log10)” value came out at 0.
Take “GCGAAAACATGGACCGGTTTTCCCGGTAATCCGTATTTGCT (site GCGAAATCTAG)”: the “recombinant UMI read abundance (log10)” value came to 0.325.
For “GCGAAAACATGGACCGGTTTTCCCGGTAATCCGTATTTGCT (site GCGAACACTAG)” the value was 0.232; for “GCGAAAACATGGACCGGTTTTCCCGGTAATCCGTATTTGCT (site GCGAAGACTAG)”, 0.
